Laboratory results: patent EP4722219A1 (Gan & Lee Pharmaceuticals Co., Ltd., priority 2023, dated 2024)

What was measured:
[1] = system: VCaP cells; test: Inhibition of VCaP cell proliferation (WST-8); format: cell-based; conditions: 168 hours
In short: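 Proliferation was read on day 9 as WST-8 absorbance at 450 nm after VCaP cells (15,000/well, DMEM/10% FBS, 37°C) were exposed from day 2 to compound at 9 points, 5-fold serial dilution, top final concentration 10 µM.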

[2] = biological target: T1, AR protein (Homo sapiens, UniProt P10275, T878A); test: AR protein degradation in LNCaP cells (Western blot); format: cell-based; conditions: 8 hours; for Degradation of AR protein in LNCaP cells, 10 nM (%) / percent AR protein degradation at a fixed concentration at 0.01 µM: 10 nM; for Degradation of AR protein in LNCaP cells, 100 nM (%) / percent AR protein degradation at a fixed concentration at 0.1 µM: 100 nM
T1 construct: host or cells: LNCaP FGC
T1 sequence (P10275 1-920 T878A): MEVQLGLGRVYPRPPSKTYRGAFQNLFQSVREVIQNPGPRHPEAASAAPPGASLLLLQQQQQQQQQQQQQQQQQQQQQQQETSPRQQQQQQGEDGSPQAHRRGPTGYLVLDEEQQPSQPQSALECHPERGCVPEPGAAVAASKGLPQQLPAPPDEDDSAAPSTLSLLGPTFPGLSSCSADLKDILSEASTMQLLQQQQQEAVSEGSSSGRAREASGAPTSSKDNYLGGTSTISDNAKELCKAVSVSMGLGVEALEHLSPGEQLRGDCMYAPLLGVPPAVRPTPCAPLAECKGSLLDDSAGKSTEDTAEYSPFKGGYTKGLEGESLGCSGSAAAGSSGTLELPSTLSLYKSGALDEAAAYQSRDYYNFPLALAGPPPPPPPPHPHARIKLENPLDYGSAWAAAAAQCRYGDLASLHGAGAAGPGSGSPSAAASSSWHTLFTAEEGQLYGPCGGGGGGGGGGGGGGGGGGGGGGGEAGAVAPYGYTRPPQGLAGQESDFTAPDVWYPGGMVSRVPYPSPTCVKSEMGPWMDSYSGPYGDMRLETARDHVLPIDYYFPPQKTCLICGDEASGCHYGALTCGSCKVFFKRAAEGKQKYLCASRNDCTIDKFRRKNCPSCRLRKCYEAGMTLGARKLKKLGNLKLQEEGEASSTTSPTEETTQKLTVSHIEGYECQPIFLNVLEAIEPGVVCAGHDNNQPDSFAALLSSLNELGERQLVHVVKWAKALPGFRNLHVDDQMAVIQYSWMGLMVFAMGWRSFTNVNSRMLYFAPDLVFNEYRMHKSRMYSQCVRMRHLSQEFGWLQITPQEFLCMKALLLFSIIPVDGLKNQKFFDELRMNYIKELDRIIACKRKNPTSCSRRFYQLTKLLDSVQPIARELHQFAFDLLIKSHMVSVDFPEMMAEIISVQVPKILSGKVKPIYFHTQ
In short: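 AR degradation rate derived from Western blot band densitometry, referenced to GAPDH, using total lysates of LNCaP cells treated 8 h with compound versus solvent control. Detection used infrared dual-color imaging after SDS-PAGE and PVDF transfer.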

Row | IC50 ([1]; Homo sapiens) [nM] | Degradation of AR protein in LNCaP cells, 10 nM (%) [2] [%] | Degradation of AR protein in LNCaP cells, 100 nM (%) [2] [%] | Compound | percent AR protein degradation at a fixed concentration at 0.01 µM [2] [%] | percent AR protein degradation at a fixed concentration at 0.1 µM [2] [%] | IC50 [1] [nM]
1 | 2890 | 10 | 63 | COc1cc(O[C@H]2C(C)(C)[C@H](NC(=O)c3ccc(N4CCC5(CC4)CC(N4CCC6(CCc7cc(C(=O)N[C@H]8CCC(=O)NC8=O)c(F)cc7O6)CC4)C5)cc3)C2(C)C)ccc1C#N [A-P-37, 1'-(7-(4-(((1R,3R)-3-(4-cyano-3-methoxyphenoxy)-2,2,4,4-tetramethylcyclobutyl)carbamoyl)phenyl)-7-azaspiro[3.5]nonan-2-yl)-N-((S)-2,6-dioxopiperidin-3-yl)-7-fluorospiro[chroman-2,4'-piperidin]-6-carboxamide] | – | – | –
2 | 4700 | 1 | 48 | COc1cc(O[C@H]2C(C)(C)[C@H](NC(=O)c3ccc(N4CCC(CN5CCN6c7ccc(N[C@H]8CCC(=O)NC8=O)cc7OC[C@@H]6C5)CC4)cc3)C2(C)C)ccc1C#N [A-P-100] | – | – | –
3 | > 10000 | -2 | 0 | COc1cc(O[C@H]2C(C)(C)[C@H](NC(=O)c3ccc(N4CCC(C)(CN5CCC6(CCc7cc(F)c(C(=O)N[C@H]8CCC(=O)NC8=O)cc7O6)CC5)CC4)cc3)C2(C)C)ccc1C#N [A-P-38, 1-(1-(4-((1R,3R)-3-((4-cyano-3-methoxyphenoxy)-2,2,4,4-tetramethylcyclobutyl)carbamoyl)phenyl)-4-methylpiperidin-4-methyl)-N-((S)-2,6-dioxopiperidin-3-yl)-6-fluorospiro[chroman-2,4'-piperidin]-7-carboxamide] | – | – | –
4 | 51 | 73 | 91 | CC1(C)[C@H](NC(=O)c2ccc(N3CCC(CN4CCC5(CCc6cc(C(=O)N[C@H]7CCC(=O)NC7=O)c(F)cc6O5)CC4)CC3)nc2)C(C)(C)[C@H]1Oc1ccc(C#N)c(Cl)c1 [A-P-50, 1'-((1-(5-(((1R,3R)-3-(3-chloro-4-cyanophenoxy)-2,2,4,4-tetramethylcyclobutyl)carbamoyl)pyridin-2-yl)piperidin-4-yl)methyl)-N-((S)-2,6-dioxopiperidin-3-yl)-7-fluorospiro[chroman-2,4'-piperidin]-6-carboxamide] | – | – | –
5 | 450 | 84 | 85 | COc1cc(O[C@H]2C(C)(C)[C@H](NC(=O)c3ccc(N4CCC(CN5CCC6(CCc7cc(C(=O)N[C@H]8CCC(=O)NC8=O)c(F)cc7O6)CC5)CC4)nc3)C2(C)C)ccc1C#N [A-P-33, 1'-((1-(5-(((1R,3R)-3-(4-cyano-3-methoxyphenoxy)-2,2,4,4-tetramethylcyclobutyl)carbamoyl)pyridin-2-yl)piperidin-4-yl)methyl)-N-((S)-2,6-dioxopiperidin-3-yl)-7-fluorospiro[chroman-2,4'-piperidin]-6-carboxamide] | – | – | –
6 | 0.06 | – | – | COc1cc(O[C@H]2C(C)(C)[C@H](NC(=O)c3ccc(N4CCC(N5CC6(CCC7(CC6)COc6c7ccc7c6CN(C6CCC(=O)NC6=O)C7=O)C5)CC4)cc3)C2(C)C)ccc1C#N (stereo partly drawn) [A-P-2] | -42 | 43 | –
7 | > 10000 | 26 | 46 | COc1cc(O[C@H]2C(C)(C)[C@H](NC(=O)c3ccc(N4CCC(CN5CCC6(CCc7cc(F)c(C(=O)N[C@H]8CCC(=O)NC8=O)cc7O6)CC5)(OC)CC4)cc3)C2(C)C)ccc1C#N [A-P-40] | – | – | –

Row | Compound | IC50 ([1]; Homo sapiens) [nM] | Degradation of AR protein in LNCaP cells, 10 nM (%) [2] [%] | Degradation of AR protein in LNCaP cells, 100 nM (%) [2] [%] | percent AR protein degradation at a fixed concentration at 0.01 µM [2] [%] | percent AR protein degradation at a fixed concentration at 0.1 µM [2] [%] | IC50 [1] [nM]
8 | C[C@H]1CC2(CCN(c3ccc(N4CCC(CN5CCC6(CC5)COc5ccc7c(c56)n(C)c(=O)n7C5CCC(=O)NC5=O)CC4)cc3)CC2)CN1c1ccc(C#N)c(Cl)c1 (stereo partly drawn) [A-P-26, 2-chloro-4-((3 S)-8-(4-(4-((3-((2,6-dioxopiperidin-3-yl))-1-methyl-2-oxo-2,3-dihydro-1H,7H-spiro[benzofuro[4,5-d]imidazole-8,4'-piperidin]-1'-yl)methyl)piperidin-1-yl)phenyl)-3-methyl-2,8-diazaspiro[4.5]decan-2-yl)benzonitrile] | 34 | – | – | 48 | 65 | –
9 | Cn1c(=O)n(C2CCC(=O)NC2=O)c2cc3c(cc21)C1(CCN(CC2CCN(c4ccc(C(=O)N[C@H]5CC[C@H](Oc6ccc(C#N)c(Cl)c6)CC5)nn4)CC2)CC1)CO3 (stereo partly drawn) [A-P-10] | 6 | – | – | 47 | 5 | –
10 | COc1cc(O[C@H]2C(C)(C)[C@H](NC(=O)c3ccc(N4CCC(CN5CCC6(CC5)COc5c6ccc(C(=O)N[C@H]6CCC(=O)NC6=O)c5F)CC4)cc3)C2(C)C)ccc1C#N [A-P-83] | 2580 | 41 | 65 | – | – | –
11 | COc1cc(O[C@H]2CC[C@H](NC(=O)c3ccc(N4CCC(CN5CCC6(CC5)COc5c6ccc6c5n(C)c(=O)n6C5CCC(=O)NC5=O)CC4)nn3)CC2)ccc1C#N (stereo partly drawn) [A-P-22] | 0.026 | – | – | 48 | 25 | –
12 | (R)-3-((1-(4-(((S)-2-(3-chloro-4-cyanophenyl)-3-methyl-2,8-diazaspiro[4.5]decan-8-yl)phenyl)piperidin-4-yl)methyl)-N-(((S)-2,6-dioxopiperidin-3-yl)-1,2,3,4,4a,5-hexahydrobenzo[b]pyrazi no[1,2-d][1,4]oxazine-8-carboxamide [A-P-58] | – | 63 | 87 | – | – | 1830
13 | COc1cc(O[C@H]2C(C)(C)[C@H](NC(=O)c3ccc(N4CCC5(CC4)CC(N4CCC6(CC4)COc4cc7c(cc46)n(C)c(=O)n7C4CCC(=O)NC4=O)C5)nn3)C2(C)C)ccc1C#N (relative stereo) [A-P-14, N-((1r,3r)-3-(4-cyano-3-methoxyphenoxy)-2,2,4,4-tetramethylcyclobutyl)-6-(2-(3-(2,6-dioxopiperidin-3-yl)-1-methyl-2-oxo-2,3-dihydro-1H,6H-spiro[benzofuro[5,6-d]imidazole-7,4'-piperidin]-1'-yl)-7-azaspiro[3.5]nonan-7-yl)pyridazine-3-carboxamide] | 2.2 | 36 | 32 | – | – | –
14 | COc1cc(O[C@H]2C(C)(C)[C@H](NC(=O)c3ccc(N4CCC(C)(CN5CCC6(CC5)COc5c6ccc(C(=O)N[C@H]6CCC(=O)NC6=O)c5F)CC4)cc3)C2(C)C)ccc1C#N [A-P-85, 1'-((1-(4-(((1r,3r)-3-(4-cyano-3-methoxyphenoxy)-2,2,4,4-tetramethylcyclobutyl)carbamoyl)phenyl)-4-methylpiperidin-4-yl)methyl)-N-((S)-2,6-dioxopiperidin-3-yl)-7-fluoro-2H-spiro[benzofuran-3,4'-piperidin]-6-carboxamide] | 540 | 7 | 40 | – | – | –
